# Data taken from patent US10059740B2, “Integrin interaction inhibitors for the treatment of cancer” (H. LEE MOFFITT CANCER CENTER AND RESEARCH INSTITUTE, INC., priority 2010, dated 2018).
# Read-outs that look alike come from different tables or passages of the source. Starred links: 1 amine or outer side, 2 acyl side, 3 side chain; linkers in the order of their positions; H or OH if unused. Positions of bridges follow the written chain, without caps; N, C: chain ends. Non-standard residues stand in square brackets, D forms with d. Residues, ends and D or L forms follow the SMILES beside them. *: point of attachment. T1 = NH2CH2CH2N(SO2Me)CH2COOH, methylsulfonamido aminoethyl glycine linker; dProlinol(O-CH2CO) = O=C(COC[C@H]1CCCN1[*:1])[*:2]; N(2-Aminoethyl)Gly = O=C(CN(CCN[*:3])[*:1])[*:2]; Nle = CCCC[C@H](N)C(=O)O; Ms = CS(=O)(=O)*; Sar = CNCC(=O)O
# Key:
# U266 = assay: Drug combination, cell viability by CT-Blue assay, Chou and Talalay Combination Index; type: cell-based; settings: combination with the named agent
# H929 myeloma cells [1] = type: cell-based; settings: for change in activity relative to the inverso peptide L-cINTEGRIN INTERACTION INHIBITORS: alanine scan and analogs, Table 4 legend
# Experimental: H929 cells were treated for 24 hours with varying concentrations of peptide. Cell death was measured by Topro-3 staining and FACS analysis. The IC50 values were obtained from linear regression analysis and an average value was obtained from 3 independent experiments.
# Table 4 legend: Structure activity relationship in H929 myeloma cells of cyclic INTEGRIN INTERACTION INHIBITORS derivatives. The minimal bioactive core sequence of INTEGRIN INTERACTION INHIBITORS WSVVM (SEQ ID NO:85) was cyclized using 2 novel reduced amide bond beta turn promoters and KLKLK (SEQ ID NO:27) as the non-recognition sequence. H929 cells were treated with varying concentrations of the indicated peptide for 24 h. Cell viability was determined using Topro-3 staining and FACS analysis after drug treatment. IC50 values were generated from linear regressions generated from the dose response curves (n=mean of 3 independent experiments).
# Using combinatorial peptide libraries and a functional binding assay, several peptides have been identified that inhibited α2β1 and α6β1 integrin mediated adhesion of prostate cancer cells to fibronectin, laminin and collagen IV.^1 They identified an all D-amino acid containing peptide referred as HYD1 ([…]) (SEQ ID NO:278) that blocks binding of epithelial prostate carcinoma cells to extracellular matrix components.^2,3 Hazlehurst and co-workers have truncated the N- and C-termini and alanine scan studies identified MVISW (SEQ ID NO:279) as the likely core region of linear D-HYD1 required for biological activity. […] The pentapeptide (KLKLK) (SEQ ID NO:27) was selected as the non-recognition strand to improve the solubility. N- to C-terminus cyclization of linear peptides was done to restrict the number of conformations available to the linear peptide which increases the affinity of the cyclized peptide for its target when the constraint stabilizes the bound conformation of the peptide. We synthesized cyclic D-HYD1 using a novel methylsulfonamide aminoethyl glycine linker T1 that connects two anti-parallel strands. […] The inverso- (peptide 2, Table 4) and partially modified retro-inverso (PMRI) (peptide 10) pentapeptide sequences of the recognition strand of cyclic III (Integrin Interaction Inhibitors also known as cyclic L-HYD1) peptide analogs were subsequently investigated for their potential to block beta integrin mediated cell adhesion. The retro-inverso design of biologically active peptides is a well-known strategy to design all D-amino acid peptides from potentially bioactive all L-peptide sequences with increased stability^4-7.
# A colony forming assay was used to compare induced cell death in H929 multiple myeloma cells. Cells were treated with integrin interaction inhibitors, shown in FIG. 5 and Table 4, and cell death was measured following 24 hour peptide treatment by TOPRO-3 staining and FACS analysis.
# H929 myeloma cells [2] = assay: MM SCID-Hu in vivo model, tumor burden by circulating Kappa levels (ELISA); set-up: species or system mice; settings: 8 mg/kg I.P. daily 14 days, every other day day 14-28; p<0.05 ANOVA vs vehicle
# Experimental: (§1) Briefly, 50,000 H929 myeloma cells were engrafted into the bone implant for 10 days prior to initiation of peptide treatment. Following tumor engraftment mice were randomized (0 time point) and injected with 8 mg/kg c-HYD1 or vehicle control (VC) daily (I.P. injections) for 14 days and every other day from day 14-28 at which time treatment stopped. Tumor burden was measured by circulating Kappa levels by ELISA weekly. N=10 mice for vehicle control (VC) and 9 mice for c-HYD1 treated.
# (§2) CD34^+ hematopoietic progenitor cells were isolated from peripheral blood and treated for 2 hrs with integrin interaction inhibitors (12.5 and 50 μg/ml) and then plated in a methylcellulose media supplemented with growth factors supporting myeloid and erythroid colonies. Colonies were counted on day 12 post-plating. […] In addition, we evaluated the toxicity of integrin interaction inhibitors in normal peripheral blood mononuclear cells (PBMC).
# [3] = Weight and overt toxicity of mice injected with c-HYD1; type: in vivo
# Experimental: as §1
# FIG. 42 is a graph showing the effect of cyclized HYD1 (c-HYD1) injection on the weight of mice.
# [4] = tested on: peripheral blood mononuclear cells (PBMC); assay: Cell death in normal peripheral blood mononuclear cells, annexin V positivity and FACS; type: cell-based; settings: 6.25-50 ug/ml, six hours
# Experimental: Peripheral blood mononuclear cells (PBMC) were isolated from a normal donor. Cells were treated with 6.25, 12.5, 25 and 50 ug/ml for six hours and cell death was measured by annexin V positivity and FACS analysis.
# as §2
# [5] = cyclic III peptide analogs, Table 8, H929 cells, TOPRO 3, read-out: IC50
molecule,measurement,setting,value
COc1cccc2c1C(=O)c1c(O)c3c(c(O)c1C2=O)C[C@@](O)(C(=O)CO)C[C@@H]3O[C@H]1C[C@H](N)[C@H](O)[C@H](C)O1 [doxorubicin],"synergy with integrin interaction inhibitors, in words",U266,strong synergism
arsenic trioxide,"synergy with integrin interaction inhibitors, in words",U266,strong synergism
CCCC[C@@H]1NC(=O)CN(S(C)(=O)=O)CCNC(=O)[C@H](CCCCN)NC(=O)[C@H](CC(C)C)NC(=O)[C@H](CCCCN)NC(=O)[C@H](CC(C)C)NC(=O)[C@H](CCCCN)NC(=O)COC[C@H]2CCCN2C(=O)[C@H](Cc2c[nH]c3ccccc23)NC(=O)[C@H](C)NC(=O)[C@H](C(C)C)NC(=O)[C@H](C(C)C)NC1=O [c-HYD1] (Ms-[N(2-Aminoethyl)Gly][Nle]VVAW[dProlinol(O-CH2CO)]KLKLK; lactam 1-C),fold more potent than the parent linear HYD1 peptide,H929 myeloma cells [1]; H929 cells,30 fold
same,IC50,"H929 myeloma cells [1]; H929 cells, 24 hours, Topro-3 and FACS, read-out: IC50 value in H929 cells",1.2 µM
same,tumor growth (circulating Kappa levels),H929 myeloma cells [2],significantly reduces tumor growth
same,weight loss and overt signs of toxicity,[3],No weight loss or any overt signs of toxicity were observed
CC[C@@H](C)[C@@H](NC(=O)[C@H](N)CCCCN)C(=O)N[C@H](CCCCN)C(=O)N[C@H](CCSC)C(=O)N[C@@H](C(=O)N[C@@H](C(=O)N[C@H](CO)C(=O)N[C@H](Cc1c[nH]c2ccccc12)C(=O)N[C@H](CCCCN)C(=O)NCC(=O)O)[C@H](C)CC)C(C)C [HYD1],cell death in normal PBMC,[4],more potent in MM cells (H929) compared to normal hematopoietic cells
"CCCC[C@@H]1NC(=O)CN(S(C)(=O)=O)CCNC(=O)[C@H](CCCCN)NC(=O)[C@H](CCC(N)=O)NC(=O)[C@H](CCCCN)NC(=O)[C@H](CC(C)C)NC(=O)[C@H](CCCCN)NC(=O)COC[C@H]2CCCN2C(=O)[C@H](Cc2c[nH]c3ccccc23)NC(=O)[C@H](C)NC(=O)[C@H](C(C)C)NC(=O)[C@H](C(C)C)NC1=O [Peptide 21, KLKQKT1N*VVAWT3] (Ms-[N(2-Aminoethyl)Gly][Nle]VVAW[dProlinol(O-CH2CO)]KLKQK; lactam 1-C)",IC50,H929 myeloma cells [1]; 24 h,25 µM
L-HYD1: the inverso (L-HYD1) cyclic compound (cyclo(KLKLKMVVSW)-T1; not fully specified (residue 5)),potency relative to cyclic D-HYD1,H929 myeloma cells [1]; H929 cells,2 fold
"CCCC[C@@H]1NC(=O)CN(S(C)(=O)=O)CCNC(=O)[C@H](CCCCN)NC(=O)[C@H](CC(C)C)NC(=O)[C@H](CCCCN)NC(=O)[C@H](CC(C)C)NC(=O)[C@H](CCCCN)NC(=O)COC[C@H]2CCCN2C(=O)[C@H](Cc2c[nH]c3ccccc23)NC(=O)[C@H](C)NC(=O)[C@H]([C@@H](C)CC)NC(=O)[C@H](C(C)C)NC1=O [Peptide 25, KLKLKT1N*VIAWT3] (Ms-[N(2-Aminoethyl)Gly][Nle]VIAW[dProlinol(O-CH2CO)]KLKLK; lactam 1-C)",IC50,H929 myeloma cells [1]; [5],10 µM
CCCC[C@@H]1NC(=O)CN(S(C)(=O)=O)CCNC(=O)[C@H](CCCCN)NC(=O)[C@H](CC(C)C)NC(=O)[C@H](CCCCN)NC(=O)[C@H](CC(C)C)NC(=O)[C@H](CCCCN)NC(=O)CN(S(C)(=O)=O)CCNC(=O)[C@H](Cc2c[nH]c3ccccc23)NC(=O)[C@H](CO)NC(=O)[C@H](C(C)C)NC(=O)[C@H](C(C)C)NC1=O [III 7],change in activity relative to the inverso peptide L-cINTEGRIN INTERACTION INHIBITORS,H929 myeloma cells [1]; H929 cells,increase in activity
"CCCC[C@@H]1NC(=O)[C@H](C(C)C)NC(=O)[C@H](C(C)C)NC(=O)[C@H](C)NC(=O)[C@H](Cc2c[nH]c3ccccc23)NC(=O)COC[C@H]2CCCN2C(=O)[C@H](CCCCN)NC(=O)CN(C)C(=O)[C@H](CCCCN)NC(=O)CN(C)C(=O)[C@H](CCCCN)NC(=O)COC[C@H]2CCCN2C1=O [Peptide 23, KXKXKT3WAVVN*T3] (cyclo(K[Sar]K[Sar]K[dProlinol(O-CH2CO)]WAVV[Nle][dProlinol(O-CH2CO)]))","bioactivity of cyclic III peptide analogs, in words",H929 myeloma cells [1]; SAR discussion of Table 8,poor bioactivity
CSCC[C@@H]1NC(=O)CN(S(C)(=O)=O)CCNC(=O)[C@H](CCCCN)NC(=O)[C@H](CC(C)C)NC(=O)[C@H](CCCCN)NC(=O)[C@H](CC(C)C)NC(=O)[C@H](CCCCN)NC(=O)CN(S(C)(=O)=O)CCNC(=O)[C@H](Cc2c[nH]c3ccccc23)NC(=O)[C@H](CO)NC(=O)[C@H](C(C)C)NC(=O)[C@H](C)NC1=O [III 5],change in activity relative to the inverso peptide L-cINTEGRIN INTERACTION INHIBITORS,H929 myeloma cells [1]; H929 cells,increase in activity
"CCCC[C@@H]1NC(=O)CN(S(C)(=O)=O)CCNC(=O)[C@H](CCCCN)NC(=O)[C@H](CC(C)C)NC(=O)[C@H](CCCCN)NC(=O)[C@H](CCC(N)=O)NC(=O)[C@H](CCCCN)NC(=O)COC[C@H]2CCCN2C(=O)[C@H](Cc2c[nH]c3ccccc23)NC(=O)[C@H](C)NC(=O)[C@H](C(C)C)NC(=O)[C@H](C(C)C)NC1=O [Peptide 20, KQKLKT1N*VVAWT3] (Ms-[N(2-Aminoethyl)Gly][Nle]VVAW[dProlinol(O-CH2CO)]KQKLK; lactam 1-C)",IC50,H929 myeloma cells [1]; 24 h,18 µM
"CCCC[C@@H]1NC(=O)[C@H](C(C)C)NC(=O)[C@H](C(C)C)NC(=O)[C@H](C)NC(=O)[C@H](Cc2c[nH]c3ccccc23)NC(=O)CN(S(C)(=O)=O)CCNC(=O)[C@H](CCCCN)NC(=O)[C@H](CC(C)C)NC(=O)[C@H](CCCCN)NC(=O)[C@H](CC(C)C)NC(=O)[C@H](CCCCN)NC(=O)CN(S(C)(=O)=O)CCNC1=O [Peptide 11, KLKLKT1WAVVN*T1]",IC50,H929 myeloma cells [1]; 24 h,12 µM
CSCC[C@@H]1NC(=O)[C@H](C(C)C)NC(=O)[C@H](C(C)C)NC(=O)[C@H](CO)NC(=O)[C@H](Cc2c[nH]c3ccccc23)NC(=O)CN(S(C)(=O)=O)CCNC(=O)[C@H](CCCCN)NC(=O)[C@H](CC(C)C)NC(=O)[C@H](CCCCN)NC(=O)[C@H](CC(C)C)NC(=O)[C@H](CCCCN)NC(=O)CN(S(C)(=O)=O)CCNC1=O [III 8],IC50,H929 myeloma cells [1]; 24 h,6.7 µM
same,change in activity relative to the inverso peptide L-cINTEGRIN INTERACTION INHIBITORS,H929 myeloma cells [1]; H929 cells,increases in activity
"CCCC[C@@H]1NC(=O)[C@H](C)NC(=O)[C@H](C(C)C)NC(=O)[C@H](C)NC(=O)[C@H](Cc2c[nH]c3ccccc23)NC(=O)CN(S(C)(=O)=O)CCNC(=O)[C@H](CCCCN)NC(=O)[C@H](CC(C)C)NC(=O)[C@H](CCCCN)NC(=O)[C@H](CC(C)C)NC(=O)[C@H](CCCCN)NC(=O)CN(S(C)(=O)=O)CCNC1=O [Peptide 13, KLKLKT1WAVAN*T1]",IC50,H929 myeloma cells [1]; [5],26 µM
